Test results from PMC12348470, “Amino Acid Substitutions in Bacteriocin Lactolisterin BU Reveal Functional Domains Involved in Biological Activity Against Staphylococcus aureus” (Molecules, 2025).
Ends that are not written are not given here.

Assays:
[1] = test system: Caco-2 cells
Protocol: Caco-2 cells were used in the toxicity assay to model the human intestinal epithelium, as they closely mimic the morphology and function of enterocytes. This makes them a relevant in vitro system for evaluating the potential cytotoxic effects of bacteriocins upon oral exposure or gastrointestinal application.
The cytotoxic effects of peptides were evaluated on human colorectal adenocarcinoma Caco-2 cells (ATCC HTB-37). The cells were cultured in Dulbecco’s Modified Eagle Medium (DMEM, high glucose; Gibco, Thermo Fisher Scientific) supplemented with 10% fetal bovine serum (FBS) and 1% penicillin–streptomycin. The cells were maintained at 37 °C in a humidified incubator with 5% CO2 and subcultured twice weekly, according to Popovic et al..
Cytotoxic effects of peptides on Caco-2 cells were assessed using a lactate dehydrogenase (LDH) release assay according to the manufacturer’s protocol (Lactate Dehydrogenase Cytotoxicity Assay Kit (Thermo Fisher Scientific, Waltham, MA, USA)). The Caco-2 cells were seeded in 96-well flat-bottom plates at a density of 2 × 10^4 cells per well and allowed to reach confluency over 48 h at 37 °C and 5% CO2.
The cells were then incubated for 24 h. Untreated cells (incubated with medium only) served as a negative control, and cells treated with LDH Lysis buffer were used as a positive control.
Following peptide treatment, 50 µL of cell culture supernatant was transferred from each well into a new 96-well plate. LDH reaction mixture (50 µL) was added to each well and incubated at room temperature for 30 min in the dark. The absorbance was measured at 490 nm using a microplate reader.
Cytotoxicity (%) was calculated using the following formula: Cytotoxicity (%) = Asample − Anegative/Apositive − Anegative × 100
The assay was performed in triplicate.

[2] = test system: S. aureus ATCC 25923; test: Spot-on-the-lawn antimicrobial screening; assay type: cell-based, Staphylococcus aureus; details: 5 µL spots at 1000, 500, 250, 125 and 62.5 µg/mL on LB soft agar lawn; overnight, 37 °C
Protocol: The antimicrobial activity screening assay of twelve chemically synthesized peptides was evaluated using a spot-on-the-lawn assay against S. aureus ATCC 25923.
S. aureus ATCC 25923 was grown overnight in LB broth, adjusted to 0.5 McFarland (~1 × 10^8 CFU/mL), and mixed 1:100 into molten soft agar (0.7% agar in LB). Five milliliters of this suspension was overlaid onto LB agar plates and allowed to solidify.
Peptide stock solutions (1 mg/mL) were serially diluted in sterile water, and 5 µL of each dilution was carefully spotted onto the surface of the inoculated agar. The plates were dried under a laminar flow hood for 15–20 min and incubated overnight at 37 °C. Zones were observed, and their size and clarity were compared.

Sequence	TI (LC50/MIC), Caco-2 [1]	zones of inhibition, spot-on-the-lawn assay [2]
MWARILGTVAKYGPKAVSWAWQHKWELINMGDLAFRYIQRIWG [Peptide G3A]	7.03	comparable to the wild-type LBU peptide
MWGRILATVAKYGPKAVSWAWQHKWELINMGDLAFRYIQRIWG [Peptide G7A]	5.11	comparable to the wild-type LBU peptide
MWGRILGTVAKYAPKAVSWAWQHKWELINMGDLAFRYIQRIWG [Peptide G13A]	1.20	comparable to the wild-type LBU peptide
